This passage reports IC50 results from US10787450B2 (BRISTOL-MYERS SQUIBB COMPANY, priority 2016, dated 2020).

Where a name gives a salt, the structure may show the parent alone. Some results are limits rather than exact numbers.

Chain of ROCK2 (O75116 whole entry, species assumed): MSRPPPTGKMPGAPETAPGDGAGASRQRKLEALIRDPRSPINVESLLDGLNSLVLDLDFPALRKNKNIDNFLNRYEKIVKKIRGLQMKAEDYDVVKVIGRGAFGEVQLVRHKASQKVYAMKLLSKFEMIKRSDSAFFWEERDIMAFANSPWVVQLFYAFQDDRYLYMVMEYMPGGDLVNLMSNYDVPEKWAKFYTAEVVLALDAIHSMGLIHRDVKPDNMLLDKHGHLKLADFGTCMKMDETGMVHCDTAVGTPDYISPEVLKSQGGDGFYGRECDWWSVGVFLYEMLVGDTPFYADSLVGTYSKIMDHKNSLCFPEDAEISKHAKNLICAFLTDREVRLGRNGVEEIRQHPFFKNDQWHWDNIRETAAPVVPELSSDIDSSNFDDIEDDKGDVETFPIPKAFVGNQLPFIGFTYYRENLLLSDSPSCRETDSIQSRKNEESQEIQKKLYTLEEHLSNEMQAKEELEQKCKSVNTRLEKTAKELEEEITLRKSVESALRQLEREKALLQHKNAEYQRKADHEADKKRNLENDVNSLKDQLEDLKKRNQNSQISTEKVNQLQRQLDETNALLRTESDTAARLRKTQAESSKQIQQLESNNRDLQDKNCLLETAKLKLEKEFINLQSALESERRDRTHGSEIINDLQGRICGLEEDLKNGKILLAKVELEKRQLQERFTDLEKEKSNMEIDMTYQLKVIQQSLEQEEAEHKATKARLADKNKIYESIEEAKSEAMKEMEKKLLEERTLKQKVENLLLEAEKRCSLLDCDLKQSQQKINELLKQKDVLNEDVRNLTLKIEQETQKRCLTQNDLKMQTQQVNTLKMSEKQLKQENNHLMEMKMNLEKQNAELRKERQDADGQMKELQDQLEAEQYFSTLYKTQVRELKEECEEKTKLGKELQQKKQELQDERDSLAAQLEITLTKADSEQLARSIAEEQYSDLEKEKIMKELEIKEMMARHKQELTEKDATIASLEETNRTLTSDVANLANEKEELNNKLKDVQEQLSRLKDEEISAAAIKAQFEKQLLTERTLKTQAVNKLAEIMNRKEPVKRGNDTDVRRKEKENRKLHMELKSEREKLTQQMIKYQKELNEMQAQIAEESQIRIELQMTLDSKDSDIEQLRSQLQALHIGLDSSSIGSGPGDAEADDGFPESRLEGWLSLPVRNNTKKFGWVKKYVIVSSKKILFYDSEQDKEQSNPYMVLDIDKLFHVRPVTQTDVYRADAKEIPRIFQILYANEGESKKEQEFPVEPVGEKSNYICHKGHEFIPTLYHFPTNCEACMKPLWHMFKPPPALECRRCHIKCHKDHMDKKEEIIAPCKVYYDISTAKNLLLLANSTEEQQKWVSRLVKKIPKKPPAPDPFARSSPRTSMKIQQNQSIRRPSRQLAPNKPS

This assay has as its target ROCK2 (Homo sapiens (Human), UniProt O75116). The assay is described as follows: ROCK2 kinase inhibition assay (FITC peptide substrate, LABCHIP 3000 Reader). It is filed as biochemical. The following applies: 5 μM ATP, 1.5 μM peptide substrate. As for the experimental part: The effectiveness of compounds of the present invention as ROCK inhibitors can be determined in a 30 μL assay containing 20 mM HEPES, pH 7.5, 20 mM MgCl2, 0.015% Brij-35, 4 mM DTT, 5 μM ATP and 1.5 μM peptide substrate (FITC-AHA-AKRRRLSSLRA-OH) (SEQ ID NO. 1). Compounds were dissolved in DMSO so that the final concentration of DMSO was <2%, and the reaction was initiated with Rho kinase variants. After incubation, the reaction was terminated by the addition of EDTA and the phosphorylated and non-phosphorylated peptides separated using a LABCHIP® 3000 Reader (Caliper Life Sciences). […] Compounds were tested in dose-response format, and the inhibition of kinase activity was calculated at each concentration of compound. The inhibition data were fit using a curve-fitting program to determine the IC50; i.e., the concentration of compound required to inhibit 50% of kinase activity.
Representative examples were tested in the ROCK2 assay described above and found having ROCK2 inhibitory activity.
Consider `COc1cccc(NC2C(=O)N(c3ccc(-c4cn[nH]c4)cn3)CC23CCN(C(=O)Cc2csc(C)n2)CC3)c1` (centres unmarked) [Example 257, 2-(5-(1H-pyrazol-4-yl)pyridin-2-yl)-4-((3-methoxy-phenyl)amino)-8-(2-(2-methyl-thiazol-4-yl)acetyl)-2,8-diazaspiro [4.5]decan-3-one], for which the IC50 (commonly the concentration needed to halve the response being measured) was 250 to 3000 nM. As to `O=C(NCCO)c1cccc(CN2C(=O)N(c3ccc(-c4cn[nH]c4)cc3)CC23CCOCC3)c1` [Example 36, 3-((3-(4-(1H-pyrazol-4-yl)phenyl)-2-oxo-8-oxa-1,3-diazaspiro[4.5]decan-1-yl)methyl)-N-(2-hydroxyethyl)benzamide], the IC50 was less than 3 nM. The result for `COc1cccc(CN2C(=O)N(c3ccc(-c4cn[nH]c4)c(OC)n3)CC23CCN(C(=O)OC(C)(C)C)CC3)c1` [Example 54, tert-butyl 3-(6-methoxy-5-(1H-pyrazol-4-yl)pyridin-2-yl)-1-(3-methoxybenzyl)-2-oxo-1,3,8-triazaspiro[4.5]decane-8-carboxylate] reads less than 3 nM; that for `COc1cc(F)cc(CN2C(=O)N(c3ccc(-c4cn[nH]c4)cc3)CC23CCN(CC(F)F)CC3)c1` [Example 132, 3-(4-(1H-pyrazol-4-yl)phenyl)-8-(2,2-difluoroethyl)-1-(3-fluoro-5-methoxybenzyl)-1,3,8-triazaspiro[4.5]decan-2-one], less than 3 nM; that for `CCc1nc(N2CC3(CCN(C(C)=O)CC3)N(Cc3cccc(OC)c3)C2=O)ccc1-c1cn[nH]c1` [Example 88, 8-acetyl-3-(6-ethyl-5-(1H-pyrazol-4-yl)pyridin-2-yl)-1-(3-methoxybenzyl)-1,3,8-triazaspiro[4.5]decan-2-one], less than 3 nM. `COc1cccc(CN2C(=O)N(c3ccc(-c4cn[nH]c4)cn3)CC23CCN(CC(C)(C)O)CC3)c1` [Example 161, 3-(5-(1H-pyrazol-4-yl)pyridin-2-yl)-8-(2-hydroxy-2-methylpropyl)-1-(3-methoxybenzyl)-1,3,8-triazaspiro[4.5]decan-2-one] had an IC50 of less than 3 nM.

For `CCc1nc(N2CC3(CCN(C(=O)C4CC(F)(F)C4)CC3)N(Cc3cccc(OC)c3)C2=O)ccc1-c1cn[nH]c1` [Example 202, 8-(3,3-difluorocyclobutane-carbonyl)-3-(6-ethyl-5-(1H-pyrazol-4-yl)pyridin-2-yl)-1-(3-methoxybenzyl)-1,3,8-triazaspiro[4.5]decan-2-one], the IC50 was less than 3 nM. The compound `COc1cccc(CN2C(=O)N(c3ccc(-c4cn[nH]c4)cc3)CC23CCN(C(=O)c2ccc4cc[nH]c4c2)CC3)c1` [Example 179, 3-(4-(1H-pyrazol-4-yl)phenyl)-8-(1H-indole-6-carbonyl)-1-(3-methoxybenzyl)-1,3,8-triazaspiro[4.5]decan-2-one] registered a half-inhibitory concentration (IC50) of 3 to 30 nM. The result for `COc1cccc(CN2C(=O)N(c3ccc(-c4cn[nH]c4)cc3)CC23CCN(C(=O)CO)CC3)c1` [Example 176, 3-(4-(1H-pyrazol-4-yl)phenyl)-8-(2-hydroxyacetyl)-1-(3-methoxybenzyl)-1,3,8-triazaspiro[4.5]decan-2-one] reads less than 3 nM.

Consider `COc1cccc(CN2C(=O)N(c3ccc(-c4cn[nH]c4)c(OC)n3)CC23CCN(CC(F)F)CC3)c1` [Example 135, 8-(2,2-difluoroethyl)-3-(6-methoxy-5-(1H-pyrazol-4-yl)pyridin-2-yl)-1-(3-methoxybenzyl)-1,3,8-triazaspiro[4.5]decan-2-one], for which the IC50 was less than 3 nM. Compound `COc1cc(CN2C(=O)N(c3ccc(-c4cn[nH]c4)cc3)CC23CC3)ccc1F` [Example 6, 6-(4-(1H-pyrazol-4-yl)phenyl)-4-(4-fluoro-3-methoxybenzyl)-4,6-diazaspiro[2.4]heptan-5-one] registered an IC50 of less than 3 nM. Turning to `COc1cccc(CN2C(=O)N(c3ccc(-c4cn[nH]c4)c(C)n3)CC23CCNCC3)c1` [Example 74, 1-(3-methoxybenzyl)-3-(6-methyl-5-(1H-pyrazol-4-yl)pyridin-2-yl)-1,3,8-triazaspiro[4.5]decan-2-one], the IC50 was in the range of 3 to 30 nM. Take `COc1cccc(CN2C(=O)N(c3ccc(-c4cn[nH]c4)cn3)CC23CCN(C(=O)C2COC2)CC3)c1` [Example 196, 3-(5-(1H-pyrazol-4-yl)pyridin-2-yl)-1-(3-methoxybenzyl)-8-(oxetane-3-carbonyl)-1,3,8-triazaspiro[4.5]decan-2-one]: the IC50 lay in the range of 3 to 30 nM. To `COc1cc(F)cc(CN2C(=O)N(c3ccc(-c4cn[nH]c4)cc3)CC23CCNCC3)c1` [Example 58, 3-(4-(1H-pyrazol-4-yl)phenyl)-1-(3-fluoro-5-methoxybenzyl)-1,3,8-triazaspiro[4.5]decan-2-one, TFA] belongs less than 3 nM; to `O=C1N(c2ccc(-c3cn[nH]c3)cc2)CC2(CCOCC2)N1Cc1ccc(F)cc1F` [Example 22, 3-(4-(1H-pyrazol-4-yl)phenyl)-1-(2,4-difluorobenzyl)-8-oxa-1,3-diazaspiro[4.5]decan-2-one], 30 to 250 nM. `COc1cccc(NC2C(=O)N(c3ccc(-c4cn[nH]c4)cc3)CC23CN(C(=O)C2COC2)C3)c1` (centres unmarked) [Example 245, 6-(4-(1H-pyrazol-4-yl)phenyl)-8-((3-methoxy-phenyl)amino)-2-(oxetane-3-carbonyl)-2,6-diazaspiro [3.4]octan-7-one] came in with an IC50 of 250 to 3000 nM. For `COc1cc(F)cc(CN2C(=O)N(c3ccc(-c4cn[nH]c4)cc3)CC23CCN(CC(C)O)CC3)c1` (centres unmarked) [Example 157, 3-(4-(1H-pyrazol-4-yl)phenyl)-1-(3-fluoro-5-methoxybenzyl)-8-(2-hydroxypropyl)-1,3,8-triazaspiro[4.5]decan-2-one], the IC50 is less than 3 nM.

With `COc1cccc(CN2C(=O)N(c3ccc(-c4cn[nH]c4)cn3)CC23CCN(C(=O)OC(C)(C)C)CC3)c1` [Example 51, tert-butyl 3-(5-(1H-pyrazol-4-yl)pyridin-2-yl)-1-(3-methoxybenzyl)-2-oxo-1,3,8-triazaspiro[4.5]decane-8-carboxylate], the IC50 fell in the range of 3 to 30 nM.

As to `COc1cccc(CN2C(=O)N(c3ccc(-c4cn[nH]c4)c(OC)n3)CC23CCN(C(=O)C(C)(C)O)CC3)c1` [Example 222, 8-(2-hydroxy-2-methylpropanoyl)-3-(6-methoxy-5-(1H-pyrazol-4-yl)pyridin-2-yl)-1-(3-methoxybenzyl)-1,3,8-triazaspiro[4.5]decan-2-one], the IC50 is less than 3 nM. To `COCCN1CCC2(CC1)CN(c1ccc(-c3cn[nH]c3)cc1)C(=O)N2Cc1cccc(OC)c1` [Example 142, 3-(4-(1H-pyrazol-4-yl)phenyl)-1-(3-methoxybenzyl)-8-(2-methoxyethyl)-1,3,8-triazaspiro[4.5]decan-2-one] belongs 3 to 30 nM; to `CCc1nc(N2CC3(CCN(CCO)CC3)N(Cc3cc(F)cc(OC)c3)C2=O)ccc1-c1cn[nH]c1` [Example 153, 3-(6-ethyl-5-(1H-pyrazol-4-yl)pyridin-2-yl)-1-(3-fluoro-5-methoxybenzyl)-8-(2-hydroxyethyl)-1,3,8-triazaspiro[4.5]decan-2-one], less than 3 nM.

For the compound `O=C(c1cccc(CN2C(=O)N(c3ccc(-c4cn[nH]c4)cc3)CC23CCOCC3)c1)N1CCC(CO)CC1` [Example 47, 3-(4-(1H-pyrazol-4-yl)phenyl)-1-(3-(4-(hydroxymethyl)piperidine-1-carbonyl)benzyl)-8-oxa-1,3-diazaspiro[4.5]decan-2-one], the half-inhibitory concentration (IC50) was 3 to 30 nM. In the case of `COc1cccc(NC2C(=O)N(c3ccc(-c4cn[nH]c4)cc3)CC23CCN(CCO)CC3)c1` (centres unmarked) [Example 252, 2-(4-(1H-pyrazol-4-yl)phenyl)-8-(2-hydroxy-ethyl)-4-((3-methoxy-phenyl)amino)-2,8-diazaspiro [4.5]decan-3-one], the IC50 lay within 250 to 3000 nM.

For `CCc1nc(N2CC3(CCN(CCC(F)(F)F)CC3)N(Cc3cccc(OC)c3)C2=O)ccc1-c1cn[nH]c1` [Example 127, 3-(6-ethyl-5-(1H-pyrazol-4-yl)pyridin-2-yl)-1-(3-methoxybenzyl)-8-(3,3,3-trifluoropropyl)-1,3,8-triazaspiro[4.5]decan-2-one], the IC50 lay within 3 to 30 nM. Take `COc1cccc(CN2C(=O)N(c3ccc(-c4cn[nH]c4)cc3)CC23CCN(CC(C)(C)O)CC3)c1` [Example 138, 3-(4-(1H-pyrazol-4-yl)phenyl)-8-(2-hydroxy-2-methylpropyl)-1-(3-methoxybenzyl)-1,3,8-triazaspiro[4.5]decan-2-one]: the IC50 was less than 3 nM. For the compound `COc1cccc(C(C)N2C(=O)N(c3ccc(-c4cn[nH]c4)cc3)CC23CC3)c1` (single isomer, unassigned) [Example 3, 6-(4-(1H-pyrazol-4-yl)phenyl)-4-(1-(3-methoxyphenyl)ethyl)-4,6-diazaspiro[2.4]heptan-5-one], the IC50 lay within 30 to 250 nM. Turning to `COc1cccc(CN2C(=O)N(c3ccc(-c4cn[nH]c4)cc3)CC23CCN(CCc2ccccc2)CC3)c1` [Example 125, 3-(4-(1H-pyrazol-4-yl)phenyl)-1-(3-methoxybenzyl)-8-phenethyl-1,3,8-triazaspiro[4.5]decan-2-one], the IC50 lay in the range of 3 to 30 nM. To `CC(C)CNC(=O)c1cccc(CN2C(=O)N(c3ccc(-c4cn[nH]c4)cc3)CC23CCOCC3)c1` [Example 35, 3-((3-(4-(1H-pyrazol-4-yl)phenyl)-2-oxo-8-oxa-1,3-diazaspiro[4.5]decan-1-yl)methyl)-N-isobutylbenzamide] belongs less than 3 nM; to `CCCOC(=O)N1CCC2(CC1)CN(c1ccc(-c3cn[nH]c3)cc1)C(=O)N2Cc1cccc(OC)c1` [Example 100, propyl 3-(4-(1H-pyrazol-4-yl)phenyl)-1-(3-methoxybenzyl)-2-oxo-1,3,8-triazaspiro[4.5]decane-8-carboxylate], less than 3 nM.
